Measurements from patent publication US10358427B2, “Modulators of indoleamine 2,3-dioxygenase” (GLAXOSMITHKLINE INTELLECTUAL PROPERTY DEVELOPMENT LIMITED, priority 2015, dated 2019).
pEC50: −log10 of the molar value.

Tests used:
[1] = target: T1, indoleamine 2, 3-dioxygenase (IDO1) (Homo sapiens, UniProt P14902); assay: HeLa IDOi assay (kynurenine detection via mass spectrometry); assay type: cell-based; design: human epithelial HeLa cells (CCL-2; host or cells: HeLa cells stimulated with human IFN-γ; conditions: human epithelial HeLa cells stimulated with IFN-γ; kynurenine by mass spectrometry; 2 days incubation
T1 sequence (P14902 whole entry): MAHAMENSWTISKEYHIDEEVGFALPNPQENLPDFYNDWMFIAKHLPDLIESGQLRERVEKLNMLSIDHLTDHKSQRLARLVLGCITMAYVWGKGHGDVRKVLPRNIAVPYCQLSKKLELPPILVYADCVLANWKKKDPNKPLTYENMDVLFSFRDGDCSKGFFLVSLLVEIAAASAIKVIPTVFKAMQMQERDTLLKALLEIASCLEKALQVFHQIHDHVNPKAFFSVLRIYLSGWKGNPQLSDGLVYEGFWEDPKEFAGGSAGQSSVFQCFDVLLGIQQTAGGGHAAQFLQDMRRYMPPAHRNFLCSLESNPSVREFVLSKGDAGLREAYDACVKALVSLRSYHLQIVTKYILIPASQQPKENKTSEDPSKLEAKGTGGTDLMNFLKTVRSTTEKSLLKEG
Protocol: (§1) Compounds of the present invention were tested via high-throughput cellular assays utilizing detection of kynurenine via mass spectrometry and cytotoxicity as end-points. For the mass spectrometry and cytotoxicity assays, human epithelial HeLa cells (CCL-2; ATCC®, Manassas, Va.) were stimulated with human interferon-γ (IFN-γ) (Sigma-Aldrich Corporation, St. Louis, Mo.) to induce the expression of indoleamine 2, 3-dioxygenase (IDO1). Compounds with IDO1 inhibitory properties decreased the amount of kynurenine produced by the cells via the tryptophan catabolic pathway. Cellular toxicity due to the effect of compound treatment was measured using CellTiter-Glo® reagent (CTG) (Promega Corporation, Madison, Wis.), which is based on luminescent detection of ATP, an indicator of metabolically active cells.
(§2) In preparation for the assays, test compounds were serially diluted 3-fold in DMSO from a typical top concentration of 5 mM and plated at 0.5 μL in 384-well, polystyrene, clear bottom, tissue culture treated plates with lids (Greiner Bio-One, Kremsmünster, Austria) to generate 11-point dose response curves. Low control wells (0% kynurenine or 100% cytotoxicity) contained either 0.5 μL of DMSO in the presence of unstimulated (−IFN-γ) HeLa cells for the mass spectrometry assay or 0.5 μL of DMSO in the absence of cells for the cytotoxicity assay, and high control wells (100% kynurenine or 0% cytotoxicity) contained 0.5 μL of DMSO in the presence of stimulated (+IFN-γ) HeLa cells for both the mass spectrometry and cytotoxicity assays.
Frozen stocks of HeLa cells were washed and recovered in DMEM high glucose medium with HEPES (Thermo Fisher Scientific, Inc., Waltham, Mass.) supplemented with 10% v/v certified fetal bovine serum (FBS) (Thermo Fisher Scientific, Inc., Waltham, Mass.), and 1× penicillin-streptomycin antibiotic solution (Thermo Fisher Scientific, Inc., Waltham, Mass.). The cells were diluted to 100,000 cells/mL in the supplemented DMEM medium. 50 μL of either the cell suspension, for the mass spectrometry assay, or medium alone, for the cytotoxicity assay, were added to the low control wells, on the previously prepared 384-well compound plates, resulting in 5,000 cells/well or 0 cells/well respectively. IFN-γ was added to the remaining cell suspension at a final concentration of 10 nM, and 50 μL of the stimulated cells were added to all remaining wells on the 384-well compound plates. The plates, with lids, were then placed in a 37° C., 5% CO2 humidified incubator for 2 days.
(§3) Following incubation, the 384-well plates were removed from the incubator and allowed to equilibrate to room temperature for 30 minutes. For the cytotoxicity assay, CellTiter-Glo® was prepared according to the manufacturer's instructions, and 10 μL were added to each plate well. After a twenty minute incubation at room temperature, luminescence was read on an EnVision® Multilabel Reader (PerkinElmer Inc., Waltham, Mass.). For the mass spectrometry assay, 10 μL of supernatant from each well of the compound-treated plates were added to 40 μL of acetonitrile, containing 10 μM of an internal standard for normalization, in 384-well, polypropylene, V-bottom plates (Greiner Bio-One, Kremsmünster, Austria) to extract the organic analytes. Following centrifugation at 2000 rpm for 10 minutes, 10 μL from each well of the acetonitrile extraction plates were added to 90 μL of sterile, distilled H2O in 384-well, polypropylene, V-bottom plates for analysis of kynurenine and the internal standard on the RapidFire 300 (Agilent Technologies, Santa Clara, Calif.) and 4000 QTRAP MS (SCIEX, Framingham, Mass.). MS data were integrated using Agilent Technologies' RapidFire Integrator software, and data were normalized for analysis as a ratio of kynurenine to the internal standard. […]

[2] = target: T1, indoleamine 2, 3-dioxygenase (IDO1); assay: PBMC IDOi assay (kynurenine detection via mass spectrometry); assay type: cell-based; conditions: human PBMC stimulated with IFN-γ and LPS; kynurenine by mass spectrometry; 2 days incubation
Protocol: as §1, with “peripheral blood mononuclear” for “epithelial HeLa”, “(PBMC) (PB003F; AlICells®, Alameda, Calif.)” for “(CCL-2; ATCC®, Manassas, Va.)”, “Mo.) and lipopolysaccharide from Salmonella minnesota (LPS) (Invivogen, San Diego, Calif.)” for “Mo.)”
as §2, with “(−IFN-γ/−LPS) PBMCs” for “(−IFN-γ) HeLa cells”, “(+IFN-γ/+LPS) PBMCs” for “(+IFN-γ) HeLa cells”
Frozen stocks of PBMCs were washed and recovered in RPMI 1640 medium (Thermo Fisher Scientific, Inc., Waltham, Mass.) supplemented with 10% v/v heat-inactivated fetal bovine serum (FBS) (Thermo Fisher Scientific, Inc., Waltham, Mass.), and 1× penicillin-streptomycin antibiotic solution (Thermo Fisher Scientific, Inc., Waltham, Mass.). The cells were diluted to 1,000,000 cells/mL in the supplemented RPMI 1640 medium. 50 μL of either the cell suspension, for the mass spectrometry assay, or medium alone, for the cytotoxicity assay, were added to the low control wells, on the previously prepared 384-well compound plates, resulting in 50,000 cells/well or 0 cells/well respectively. IFN-γ and LPS were added to the remaining cell suspension at final concentrations of 100 ng/ml and 50 ng/ml respectively, and 50 μL of the stimulated cells were added to all remaining wells on the 384-well compound plates. The plates, with lids, were then placed in a 37° C., 5% CO2 humidified incubator for 2 days.
as §3, with “and 40” for “and 10”

SMILES	pEC50 [1]	pEC50 [2]
CCCCc1cc(-c2ccccc2-c2nnn[nH]2)cc(Nc2nc3ccccc3o2)c1OCCC [Example 14, N-(5-Butyl-4-propoxy-2′-(1H-tetrazol-5-yl)-[1,1′-biphenyl]-3-yl)benzo[d]oxazol-2-amine]	8.30	8.10
CC(C)CN(c1ccc(-c2ccccc2C(=O)O)cc1Nc1nnc(C2CC2)s1)C1CCCCC1 [Example 20, 4′-(Cyclohexyl(isobutyl)amino)-3′((5-cyclopropyl-1,3,4-thiadiazol-2-yl)amino)-[1,1′-biphenyl]-2-carboxylic acid]	8.70	9.10
CCCC(CCC)Oc1ccc(-c2ccccc2-c2nnn[nH]2)cc1Nc1nc2ccccc2o1 [Example 16, N-(4-(Heptan-4-yloxy)-2′-(1H-tetrazol-5-yl)-[1,1′-biphenyl]-3-yl)benzo[d]oxazol-2-amine]	7.00	7.20
CC(C)CN(c1ccc(-c2ccccc2C(=O)O)cc1Nc1nc(Cl)ns1)C1CCCCC1 [Example 9, 3′-((3-Chloro-1,2,4-thiadiazol-5-yl)amino)-4′-(cyclohexyl(isobutyl)amino)-[1,1′-biphenyl]-2-carboxylic acid]	8.00	8.60
CC(C)CN(c1ccc(-c2ccccc2-c2nnn[nH]2)cc1Nc1nnc(C2CC2)s1)C1CCCCC1 [Example 21, N^4-Cyclohexyl-N^3-(5-cyclopropyl-1,3,4-thiadiazol-2-yl)-N^4-isobutyl-2′-(1H-tetrazol-5-yl)-[1,1′-biphenyl]-3,4-diamine]	8.50	8.80
CC(C)CN(c1ccc(-c2ccccc2C(=O)O)cc1Nc1nc2ccccc2o1)C1CCCCC1 [Example 7, 3′-(Benzo[d]oxazol-2-ylamino)-4′-(cyclohexyl(isobutyl)amino)-[1,1′-biphenyl]-2-carboxylic acid]	7.10	7.40
